Results taken from US6867320B2, “Substituted phenylalkanoic acid derivatives and use thereof” (Asahi Kasei Pharma Corporation, priority 2002, dated 2005).

How the values were obtained:
[1] = test system: zymosan-stimulated footpad edema; assay: Mouse zymosan-stimulated footpad edema reaction; assay type: in vivo; conditions: ICR female mice, oral 0.1 to 500 mg/kg, compared with positive control group
Protocol: 3. Suppressing Effect on Mouse Zymosan-stimulated Footpad Edema Reaction A suppressing effect on footpad edema caused by zymosan as an inflammatory stimulant was studied by the following method. Groups of ICR female mice (6- to 7-week old) each consisting of eight mice were used for the test. A test compound was suspended or dissolved in purified water containing 0.5% methylcellulose and orally administered to the test animals at 0.1 to 500 mg/0.2 ml/kg. To the control group, purified water containing 0.5% methylcellulose was administered in a similar manner, which was not added with a test compound. One hour after the administration of the test compound, 0.02 ml of a suspension of zymosan suspended in physiological saline (Otsuka Pharmaceutical) at 1 mg/ml was subcutaneously administered to right hind leg footpad of each mouse. One and two hours after the administration of the zymosan suspension, volume of the right hind leg footpad was measured by using an apparatus for measuring a volume of mouse hind leg footpad edema (Unicom). A difference of the volume of footpad measured above and the footpad volume before the administration of the test compound measured beforehand was regarded as a volume of the edema. For the volume of the edema at 1 hour or 2 hours after the zymosan administration, a graph was prepared by indicating time in abscissa and the edema volume in ordinate, and an edema volume AUC (area under the curve) was obtained up to 2 hours by calculation using the following equation. Edema volume AUC (1·hour)=1/2×1×A+1×(A+B)/2 • A: Edema volume 1 hour after zymosan administration • B: Edema volume 2 hour after zymosan administration A suppression ratio on edema of test compound was obtained by calculation using the following equation. Edema suppression ratio (%)=[1−B/A]×100 • A: Edema volume AUC of positive control • B: Edema volume AUC of test compound administered group (2) Measurement Results

[2] = test system: IgE-stimulated footpad edema; assay: Mouse IgE-stimulated footpad edema reaction; assay type: in vivo; conditions: C57BL/6 male mice, oral 0.1 to 500 mg/kg, compared with positive control group
Protocol: 4. Suppressing Effect on Mouse IgE-stimulated Footpad Edema Reaction
Suppression on footpad edema caused by IgE antibody as an allergic stimulant was studied by the following method. Groups of C57BL/6 male mice (9- to 11-week old) each consisting of five mice were used for the test. Anti-DNP-BSA IgE serum was subcutaneously administered in a volume of 20 μl to right hind leg footpad of each mouse one day before the test. A test compound was suspended or dissolved in purified water containing 0.5% methylcellulose and orally administered to the test animals at 0.1 to 500 mg/0.2 ml/kg. To the control group, purified water containing 0.5% methylcellulose was administered in a similar manner, which was not added with the test compound. Two hours after the administration of the test compound, 0.2 ml of a solution of DNP-BSA dissolved in physiological saline (Otsuka Pharmaceutical) at 2.5 μg/ml was intravenously administered. The thickness of right hind leg footpad was measured by using a digital thickness gauge (MITSUTOYO) 10, 15, 20, and 30 minutes after the administration of DNP-BSA. A difference of the thickness of footpad measured above and the thickness before the administration of the test compound measured beforehand was regarded as a thickness of edema.
For the thickness of the edema at 10, 15, 20 and 30 minutes after the DNP-BSA administration, a graph was prepared indicating time in abscissa and the edema thickness in ordinate, and edema thickness AUC […] was obtained by calculation according to the following equation. Edema thickness AUC (mm·minute)=1/2×10×A+5×(A+B)/2+5×(B+C)/2+10×(C+D)/2 • A: Edema thickness 10 minutes after DNP-BSA administration • B: Edema thickness 15 minutes after DNP-BSA administration • C: Edema thickness 20 minutes after DNP-BSA administration • D: Edema thickness 30 minutes after DNP-BSA administration
A suppressing ratio on edema of a test compound was obtained by calculation in accordance with the following equation. Edema suppression ratio (%)=[1−B/A]×100 • A: Edema thickness AUC of positive control • B: Edema thickness AUC of test compound administered group (2) Measurement Results

[3] = test system: PGE2 production from IL-1β-stimulated MG-63 cells; assay: Suppressing action on PGE2 production from IL-1β-stimulated MG-63 cells; assay type: cell-based; conditions: Homo sapiens, IL-1β 1 ng/ml, 18 hours, read-out: PGE2 production suppression ratio
Outline: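 Human osteosarcoma MG-63 cells (2×10^4/well) switched to 0.5% FBS medium, treated with compound, then stimulated with IL-1β at 1 ng/ml final for 18 h. Supernatant PGE2 measured by EIA; suppression ratio calculated against stimulated and unstimulated wells.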

[4] = test system: PGD2 production from IgE-stimulated RBL-2H3 cells; assay: Suppressing action on PGD2 production from IgE-stimulated RBL-2H3 cells; assay type: cell-based; conditions: Rattus norvegicus, 10 min, IgE/DNP-BSA stimulated RBL-2H3 cells, read-out: PGD2 production suppression ratio
Source text: (§1) 2. Suppressing Action on PGD2 and LTB4 Production from IgE-Stimulated RBL-2H3 Cells
(§2) Suppressing action on PGD2 and LTB4 production caused by IgE as an allergic stimulant was investigated by the following method. Cells of RBL-2H3, which is a rat mastocytoma cell line (purchased from ATCC), were suspended in DEMEM medium (GIBCO) containing 10% fetal bovine serum (BioFluid), inoculated to each well of 48-well culture plate at a density of 2×10^4 cells/well and cultured overnight. Then, IgE antiserum directed to dinitrophenylated BSA (henceforth DNP-BSA) was further added to each well, and the cells were cultured for 30 minutes. Then, the medium was changed to DEMEM medium containing 0.5% fetal bovine serum, a test compound was added with each well, and DNP-BSA was further added at a final concentration of 100 ng/ml as a stimulant. Ten minutes after the stimulant was added, the culture supernatant was collected, and the PGD2 concentration and LTB4 concentration in the culture supernatant were measured by using EIA kit (CAYMAN). By using a well which was not added with the stimulant as a negative control and a well which was added only with the stimulant as a positive control, suppressing ratios on mediator production were calculated from the production amounts of the mediators in the well added with the test compound using the following equation. PGD2 or LTB4 production suppression ratio=[1−(C−B)/(A−B)]×100 • A: PGD2 or LTB4 production amount of positive control • B: PGD2 or LTB4 production amount of negative control • C: PGD2 or LTB4 production amount in well added with test compound
(§3) Further, as control compounds for comparison, reference compound (1), 3-(2-cyclohexylmethyloxy-1,1′-biphenyl-5-yl)propionic acid described in WO99/19291, reference compounds (2) and (3), [2-(5,6,7,8-tetrahydro-5,5,8,8-tetramethyl-2-naphthalenyl)methyloxy-1,1′-biphenyl-5-yl]carboxylic acid [reference compound (2)] and 3-[3′-carboxy-2-(5,6,7,8-tetrahydro-5,5,8,8-tetramethyl-2naphthalenyl)methyloxy-1,1′-biphenyl-6-yl]propionic acid [reference compound (3)] described in U.S. Pat. No. 5,391,817 and Japanese Patent Unexamined Publication (Kokai) No. 7-22399, respectively, were used, and activities thereof were similarly measured.

[5] = test system: LTB4 production from IgE-stimulated RBL-2H3 cells; assay: Suppressing action on LTB4 production from IgE-stimulated RBL-2H3 cells; assay type: cell-based; conditions: Rattus norvegicus, 10 min, IgE/DNP-BSA stimulated RBL-2H3 cells, read-out: LTB4 production suppression ratio
Source text: as §1, §2, §3

| Compound | suppression of footpad edema caused by zymosan [1] | suppression of footpad edema caused by IgE stimulation [2] | inhibition at 0.4 µM [3] | inhibition at 0.4 µM [4] | inhibition at 0.4 µM [5] |
| --- | --- | --- | --- | --- | --- |
| O=C(O)CCc1ccc(OCc2ccc(Br)cc2F)c(-c2ccc3[nH]ccc3c2)c1 [Compound 168] | suppressed footpad edema | suppressed the footpad edema |  |  |  |
| O=C(O)CCc1ccc(OCCc2ccccc2)c(-c2ccc3ccccc3c2)c1 [Compound 051, 3-[3-(naphthalen-2-yl)-4-(2-phenylethyloxy)phenyl]propionic acid] |  | suppressed the footpad edema | ≥ 50% |  |  |
| O=C(O)CCc1ccc(OCc2ccc(F)cc2F)c(-c2ccc3[nH]ccc3c2)c1 [Compound 156, 3-[4-(2,4-difluorophenylmethyloxy)-3-(1H-indol-5-yl)phenyl]propionic acid] |  | suppressed the footpad edema | ≥ 50% |  |  |
| O=C(O)CCc1ccc(OCc2ccccc2Cl)c(-c2ccc3[nH]ccc3c2)c1 [Compound 148, 3-[4-(2-chlorophenylmethyloxy)-3-(1H-indol-5-yl)phenyl]propionic acid] | suppressed footpad edema |  | ≥ 50% | ≥ 50% | ≥ 50% |
| Cn1ccc2cc(-c3cc(CCC(=O)O)ccc3OC3CCCCC3)ccc21 [Compound 110, 3-[4-cyclohexyloxy-3-(1-methyl-1H-indol-5-yl)phenyl]propionic acid] | suppressed footpad edema |  | ≥ 50% | ≥ 50% | ≥ 50% |
| O=C(O)CCc1ccc(OCc2ccc3ccccc3c2)c(-c2ccc3[nH]ccc3c2)c1 [Compound 192, 3-{3-(1H-indol-5-yl)-4-[(Naphthalen-2-yl)methyloxy]phenyl}propionic acid] |  | suppressed the footpad edema | ≥ 50% |  |  |
| O=C(O)CCc1ccc(OCc2ccc(F)c(F)c2)c(-c2ccc3[nH]ccc3c2)c1 [Compound 158, 3-[4-(3,4-difluorophenylmethyloxy)-3-(1H-indol-5-yl)phenyl]propionic acid] |  | suppressed the footpad edema | ≥ 50% |  |  |
| O=C(O)CCc1ccc(OC2CCCC2)c(-c2ccc3[nH]ccc3c2)c1 [Compound 102, 3-[4-cyclopentyloxy-3-(1H-indol-5-yl)phenyl]propionic acid] | suppressed footpad edema |  | ≥ 50% | ≥ 50% | ≥ 50% |
| O=C(O)CCc1ccc(OCc2ccccc2)c(-c2ccc3[nH]ccc3c2)c1 [Compound 325, 3-[4-benzyloxy-3-(1H-indol-5-yl)phenyl]propionic acid] |  | suppressed the footpad edema | ≥ 50% |  |  |
| Nc1cc(CCC(=O)O)cc(-c2ccc3[nH]ccc3c2)c1OCC1CCCC1 [Compound 266, 3-[3-amino-4-cyclopentylmethyloxy-5-(1H-indol-5-yl)phenyl]propionic acid] |  | suppressed the footpad edema | ≥ 50% |  |  |
| CCn1ccc2cc(-c3cc(CCC(=O)O)ccc3OC3CCCC3)ccc21 [Compound 246, 3-[4-cyclopentyloxy-3-(1-ethyl-1H-indol-5-yl)phenyl]propionic acid] | suppressed footpad edema |  | ≥ 50% | ≥ 50% | ≥ 50% |
| O=C(O)CCc1ccc(OCC2CCCCC2)c(-c2ccc3ccccc3c2)c1 [Compound 066, 3-[4-cyclohexylmethyloxy-3-(naphthalen-2-yl)phenyl]propionic acid] | suppressed footpad edema |  | ≥ 50% | ≥ 50% | ≥ 50% |
| Nc1cc(CCC(=O)O)cc(-c2ccc3ccccc3c2)c1OCC1CCCC1 [Compound 095, 3-[3-amino-4-cyclopentylmethyloxy-5-(naphthalen-2-yl)phenyl]propionic acid] | suppressed footpad edema |  | ≥ 50% | ≥ 50% | ≥ 50% |
| O=C(O)CCc1ccc(OC2CCCCC2)c(-c2ccc3[nH]ccc3c2)c1 [Compound 104, 3-[4-cyclohexyloxy-3-(1H-indol-5-yl)phenyl]propionic acid] | suppressed footpad edema |  | ≥ 50% | ≥ 50% | ≥ 50% |
| O=C(O)CCc1ccc(OCc2ccccc2Br)c(-c2ccc3[nH]ccc3c2)c1 [Compound 154, 3-[4-(2-bromophenylmethyloxy)-3-(1H-indol-5-yl)phenyl]propionic acid] | suppressed footpad edema |  | ≥ 50% | ≥ 50% | ≥ 50% |
| O=C(O)CCc1ccc(OCCc2ccc(Cl)cc2)c(-c2ccc3[nH]ccc3c2)c1 [Compound 213, 3-{4-[2-(4-chlorophenyl)ethyloxy]-3-(1H-indol-5-yl)phenyl}propionic acid] |  | suppressed the footpad edema | ≥ 50% |  |  |
